Laboratory results reported in the supplement of paper PMC13380429.

Tests used:
Settings in all cases: 72 h
HepG2 [1] = experiment: relative viability EC50 (midpoint between 100% and the lowest measured viability); higher = less toxic
Caco-2 [2] = experiment: as above
Vero E6 [3] = experiment: as above
U2OS [4] = experiment: as above
Calu-3 [5] = experiment: as above
HepG2 [6] = experiment: drug sensitivity score (DSS) for viability; higher = more toxic; extreme values may be limits of the assay
Caco-2 [7] = experiment: as above
Vero E6 [8] = experiment: as above
U2OS [9] = experiment: as above
Calu-3 [10] = experiment: as above
HepG2 [11] = experiment: cell viability relative to DMSO; higher = less toxic
Caco-2 [12] = experiment: as above
Vero E6 [13] = experiment: as above
U2OS [14] = experiment: as above
Calu-3 [15] = experiment: as above

| SMILES | relative viability EC50 (HepG2 [1]) [µM] | relative viability EC50 (Caco-2 [2]) [µM] | relative viability EC50 (Vero E6 [3]) [µM] | relative viability EC50 (U2OS [4]) [µM] | relative viability EC50 (Calu-3 [5]) [µM] | drug sensitivity score (HepG2 [6]) | drug sensitivity score (Caco-2 [7]) | drug sensitivity score (Vero E6 [8]) | drug sensitivity score (U2OS [9]) | drug sensitivity score (Calu-3 [10]) | cell viability (HepG2 [11]; 1 nM) [%] | cell viability (HepG2 [11]; 10 nM) [%] | cell viability (HepG2 [11]; 100 nM) [%] | cell viability (HepG2 [11]; 1000 nM) [%] | cell viability (HepG2 [11]; 10000 nM) [%] | cell viability (Caco-2 [12]; 1 nM) [%] | cell viability (Caco-2 [12]; 10 nM) [%] | cell viability (Caco-2 [12]; 100 nM) [%] | cell viability (Caco-2 [12]; 1000 nM) [%] | cell viability (Caco-2 [12]; 10000 nM) [%] | cell viability (Vero E6 [13]; 1 nM) [%] | cell viability (Vero E6 [13]; 10 nM) [%] | cell viability (Vero E6 [13]; 100 nM) [%] | cell viability (Vero E6 [13]; 1000 nM) [%] | cell viability (Vero E6 [13]; 10000 nM) [%] | cell viability (U2OS [14]; 1 nM) [%] | cell viability (U2OS [14]; 10 nM) [%] | cell viability (U2OS [14]; 100 nM) [%] | cell viability (U2OS [14]; 1000 nM) [%] | cell viability (U2OS [14]; 10000 nM) [%] | cell viability (Calu-3 [15]; 1 nM) [%] | cell viability (Calu-3 [15]; 10 nM) [%] | cell viability (Calu-3 [15]; 100 nM) [%] | cell viability (Calu-3 [15]; 1000 nM) [%] | cell viability (Calu-3 [15]; 10000 nM) [%] |
| --- | --- | --- | --- | --- | --- | --- | --- | --- | --- | --- | --- | --- | --- | --- | --- | --- | --- | --- | --- | --- | --- | --- | --- | --- | --- | --- | --- | --- | --- | --- | --- | --- | --- | --- | --- |
| CN(C)CC/C=C1/c2ccccc2Sc2ccc(Cl)cc21 [chlorprothixene] | > 10 | > 10 | > 10 | > 10 | > 10 | 0.6 | 0 | 0 | 0 | 0.1 | 99.6 | 103 | 103 | 98.4 | 82.9 | 122 | 99.5 | 96.2 | 90.5 | 100 | 103 | 110 | 103 | 106 | 89.2 | 104 | 101 | 102 | 99.7 | 100 | 103 | 101 | 106 | 106 | 84.8 |
| N#C/C(=C\c1ccc(O)c(O)c1)C(=O)OCCc1cccs1 [2-TEDC] | > 10 | > 10 | > 10 | > 10 | > 10 | 1 | 0 | 0 | 0 | 0 | 93.8 | 96.1 | 104 | 86 | 91.3 | 96.3 | 102 | 91.8 | 101 | 99.3 | 98.5 | 97.9 | 96.7 | 93.6 | 102 | 98.6 | 101 | 96.1 | 99.2 | 95.2 | 91.1 | 94.2 | 96.1 | 99.4 | 93.9 |
| O=C(O)c1ccccc1Nc1cccc(OCc2ccc3ccccc3n2)c1 [SR-2640] | > 10 | > 10 | > 10 | > 10 | > 10 | 0 | 0 | 0 | 0 | 0 | 87.9 | 96.3 | 96.9 | 101 | 105 | 105 | 103 | 107 | 96.8 | 91.7 | 92 | 98.9 | 92.9 | 95 | 86.9 | 105 | 98.1 | 103 | 99.2 | 101 | 97.6 | 94.6 | 103 | 98.2 | 98.4 |
| CC(C)(CCCCCC(O)CCCCCC(C)(C)C(=O)O)C(=O)O [bempedoic-acid] | > 10 | > 10 | > 10 | > 10 | > 10 | 0 | 0 | 0 | 0 | 0 | 102 | 98.2 | 107 | 98.2 | 102 | 98.5 | 95.6 | 96.8 | 96.1 | 95 | 106 | 104 | 98 | 100 | 98 | 97.6 | 97.2 | 97.7 | 100 | 100 | 90.2 | 92.3 | 87.2 | 92.1 | 92.6 |
| CCOc1ccc(NC(C)=O)cc1 [phenacetin] | > 10 | > 10 | > 10 | > 10 | > 10 | 0 | 0.1 | 0 | 0 | 0 | 95.8 | 77.6 | 90.8 | 93.7 | 84.1 | 105 | 81.8 | 101 | 110 | 85.9 | 109 | 102 | 108 | 96 | 102 | 100 | 94.6 | 90.2 | 90.3 | 97.8 | 90.3 | 90.8 | 99.5 | 94.3 | 104 |
| CC(=O)NS(=O)(=O)c1ccc(NC(=O)c2ccccc2C(=O)O)cc1 [phthalylsulfacetamide] | > 10 | > 10 | > 10 | > 10 | > 10 | 0 | 0 | 0 | 0 | 0 | 102 | 104 | 91.6 | 105 | 101 | 91.3 | 98.4 | 94.2 | 96.4 | 94.3 | 102 | 109 | 98.2 | 104 | 102 | 98.8 | 94.6 | 103 | 99.2 | 102 | 100 | 102 | 96.8 | 108 | 101 |
| O=C(O)c1ccc(N2N=C(Cc3ccccc3)/C(=C\c3ccc(-c4ccccc4F)o3)C2=O)cc1 [GS-143] | > 10 | > 10 | > 10 | > 10 | > 10 | 0 | 0.2 | 0.3 | 0 | 0 | 107 | 110 | 95.4 | 95.8 | 105 | 103 | 104 | 99.2 | 93.8 | 87.5 | 106 | 99 | 99.9 | 101 | 82.7 | 105 | 106 | 101 | 104 | 98.8 | 102 | 99.1 | 101 | 105 | 99.8 |
| N#Cc1cnc2cnc(NCc3cccnc3)cc2c1Nc1ccc(F)c(Cl)c1 [TC-S-7006] | 1.85 | > 10 | > 10 | > 10 | > 10 | 4.1 | 1.9 | 0 | 0.4 | 0 | 102 | 93 | 107 | 91.2 | 50 | 93.3 | 99 | 91.1 | 88.3 | 75.6 | 97.2 | 94.1 | 94 | 85.8 | 95.4 | 96.3 | 106 | 96.1 | 96.8 | 85.2 | 96.6 | 96.8 | 96.9 | 91.8 | 89 |
| O=C(Oc1ccccc1C(=O)O)c1ccccc1O [sasapyrine] | > 10 | > 10 | > 10 | > 10 | > 10 | 0 | 2.6 | 0.4 | 0 | 0 | 93.1 | 86.4 | 100 | 91.7 | 105 | 106 | 95.3 | 90.3 | 82.8 | 81.9 | 110 | 99.9 | 102 | 88.3 | 89.8 | 100 | 98.6 | 101 | 97.2 | 94.9 | 87.8 | 108 | 100 | 100 | 93 |
| CCN(CC)C(=O)Nc1ccc(OCC(O)CNC(C)(C)C)c(C(C)=O)c1 (stereo not given) [celiprolol] | > 10 | > 10 | > 10 | > 10 | > 10 | 0 | 0 | 0 | 0 | 0 | 99.6 | 98.9 | 106 | 88.1 | 103 | 95.4 | 106 | 112 | 103 | 106 | 103 | 104 | 102 | 106 | 97.3 | 101 | 100 | 96.5 | 95.9 | 95.3 | 104 | 104 | 106 | 98.7 | 96.4 |
| CN(C)C/C=C/C(=O)Nc1ccc(C(=O)Nc2cccc(Nc3ncc(Cl)c(-c4c[nH]c5ccccc45)n3)c2)cc1 [THZ1] | 0.0248 | 0.185 | 0.811 | 0.11 | 0.107 | 30.2 | 13.5 | 11.5 | 22.6 | 14.4 | 108 | 87.2 | 10 | 5.4 | 4.8 | 95.6 | 104 | 88.9 | 36.9 | 37 | 103 | 101 | 99.4 | 44.4 | 11.4 | 97 | 102 | 58.2 | 6.2 | 4.9 | 96.1 | 97 | 71.8 | 39.6 | 40.7 |
| O=C1[C@@H]2[C@H]3CC[C@H](C3)[C@@H]2C(=O)N1CCCCN1CCN(c2ncccn2)CC1 [tandospirone] | > 10 | > 10 | > 10 | > 10 | > 10 | 0 | 0 | 0 | 0 | 1.3 | 107 | 97 | 110 | 104 | 99.7 | 93.6 | 95.5 | 94.1 | 98.2 | 95.4 | 107 | 104 | 98.5 | 96.2 | 101 | 98.3 | 98.6 | 98.5 | 99.8 | 97.7 | 113 | 103 | 92 | 86.8 | 99.7 |
| CC(C)[N+](C)(CCOC(=O)C1c2ccccc2Oc2ccccc21)C(C)C [propantheline] | > 10 | > 10 | > 10 | > 10 | > 10 | 0 | 0 | 0 | 0 | 0 | 107 | 99 | 103 | 110 | 93.6 | 86.1 | 95.3 | 105 | 91.7 | 105 | 108 | 108 | 98.8 | 104 | 101 | 96.9 | 95.6 | 102 | 96.9 | 102 | 93.8 | 101 | 108 | 108 | 109 |
